Here are results for one compound from US7029671B1, “Method for activating human antigen-presenting cells, activated human antigen-presenting cells, and use thereof” (Kirin Brewery Company, Limited, priority 1996, dated 2006).

In experiment [1] the test system is Human Peripheral Blood-derived APC. The experiment is described as follows: Pharmacological Test 1: autologous MLR assay with human peripheral blood-derived APCs pretreated with KRN7000. Type of experiment: cell-based. To be noted: KRN7000 100 ng/mL, 40 hours; conclusion from autologous MLR. The procedure: This experiment was designed to study an effect of KRN7000 (Compound No.14, a representative glycoside compound of the invention) on APCs prepared from human peripheral blood. The APCs (mainly comprised of dendritic cells) derived from human peripheral blood were prepared essentially according to the method of Hsu et al. (supra). Briefly, human peripheral blood was layered over Ficoll-Paque and centrifuged at 2,000 rpm for 35 minutes to give a mononuclear cell fraction. A portion of the mononuclear cell fraction was suspended into PBS (Ca^++, Mg^++ free) supplemented with 5% of inactivated human AB serum. The resultant solution was layered over 50% Percol, and then centrifuged at 3,000 rpm for 20 minutes to give a high-density fraction. The high-density fraction was panned using a human γ-globulin-coated dish to remove FcR^+ cells therefrom (i.e., a monocyte-removed fraction). The resultant fraction was reacted with anti-CD3 monoclonal antibodies, anti-CD21 monoclonal antibodies and anti-CD56 monoclonal antibodies. […]
The APCs (5×10^4 cells/well) and the responder cells (1×10^5 cells/well) both prepared in the above steps were added to wells of a 96-well flat-bottomed plate, and then subjected to autologous MLR assay. […] The amount of the ^3H-TdR taken up into the cells was determined using a liquid scintillation counter. […]

Experiment [2] relates to Murine T cell lymphoma EL-4 cells. The experiment is described as follows: Pharmacological Test 4: APC therapy of EL-4-bearing mice, survival period. It is filed as in vivo, mouse. The procedure:
To study an anti-tumor effect of murine spleen-derived APCs activated with KRN7000 on mice implanted with tumor cells, experiments were performed with BDF1 mice (6-week-old, female). All experiments included 6 mice per group. Murine T cell lymphoma EL-4 cells were injected intravenously into each mouse at a level of 1×10^5 cells/mouse (injection day: day 0). On day 1, the vehicle-pretreated APCs (V-APC) and the KRN7000-pretreated (100 ng/mL) APCs (KRN-APC) both prepared in the same manner as in Pharmacological Test 3 were each injected intravenously into the mice at a level of 5×10^5 cells/mouse. As a positive control, KRN7000 was injected intravenously into the mice at a dose of 100 μg/kg on days 1, 5 and 9. Each mouse was checked for a sign of life daily to determine its survival period.

Experiment [3] relates to Murine colon adenocarcinoma Colon26 cells. The experiment is described as follows: Pharmacological Test 6: APC therapy of mice implanted intrasplenically with Colon26 cells, liver weight. Type of experiment: in vivo, mouse. The procedure:
The experiment was performed to study an anti-tumor effect of murine bone marrow-derived APCs activated with KRN7000 on mice implanted with tumor cells. All experiments were performed with CDF1 mice (6-week-old, female), which were divided into groups consisting of 5 mice. Murine colon adenocarcinoma Colon26 cells were implanted into each mouse intrasplenically at a level of 2×10^6 cells/mouse (inoculation day: day 0). On day 1, the vehicle-pretreated APCs (V-APC) and the KRN7000-pretreated (100 ng/mL) APCs (KRN-APC) both prepared in the same manner as in Pharmacological Test 5 were individually injected intravenously to the mice at a level of 8×10^5 cells/mouse. As a positive control, KRN7000 was injected intravenously to the mice at a dose of 100 μg/kg on days 1, 5 and 9. On day 14, the liver was removed from each of the mice and weighed. Here, the liver from the mouse that had not been implanted with the tumor cells was about 1 g. Accordingly, the substantial tumor weight was determined by subtracting 1 g from the weight of the liver of the tumor-implanted mouse.

The test system of experiment [4] is Murine melanoma B16 cells. Nature of the experiment: Pharmacological Test 8: APC therapy of mice with subcutaneous B16 melanoma, tumor volume. It is filed as in vivo, mouse. The settings on record: KRN7000 100 μg/kg i.v. on days 1, 5 and 9 (positive control). The procedure:
The experiment was performed with BDF1 mice (6-week-old, female), which were divided into groups consisting of 6 mice. Murine melanoma B16 cells were implanted subcutaneously into each mouse at a level of 1.5×10^6 cells/mouse (implantation day: day 0). Several types of pretreated APCs were prepared in the same manner as in Pharmacological Test 3, in which APCs were pretreated with a vehicle (DMSO, final concentration: 0.1%) (V-APC), with both the vehicle (DMSO, final concentration: 0.1%) and a B16-tumor cell lysate (V-T-APC), with KRN7000 (final concentration: 100 ng/mL) (KRN-APC), and with both KRN7000 (final concentration: 100 ng/mL) and a B16-tumor cell lysate (KRN-T-APC), respectively. Each of the pretreated APCs was injected intravenously into the mice at a dose of 5×10^5 cells/mouse on day 1. As a positive control, KRN7000 was injected intravenously into the mice at a dose of 100 μg/kg on days 1, 5 and 9. The volume of the subcutaneous tumor in each mouse was measured.

The subject of experiment [5] is Human Peripheral Blood-derived APCs. The experiment is described as follows: Pharmacological Test 9: allogeneic MLR assay with human peripheral blood monocyte-derived APCs cultured 3 days. It is filed as cell-based. To be noted: conclusion from Pharmacological Tests 9, 10 and 11; KRN7000 100 ng/mL. The procedure: A monocyte fraction was prepared from human peripheral blood mononuclear cells by Percol density-gradient centrifugation. The monocyte fraction was cultured in the presence or absence of GM-CSF (50 ng/mL) and IL-4 (100 ng/mL), and simultaneously either a vehicle (v; DMSO, 0.1%) or KRN7000 (KRN; 100 ng/mL) was added thereto. After culturing for 3 days, the cells were collected and washed with the medium 3 times to give V-APC, KRN-APC, V-APC-GM and KRN-APC-GM (where “GM” refers to the APCs cultured in the presence of GM-CSF and IL-4), which were then provided for use as APCs. As responder cells, human peripheral blood-derived FcR^− cells were used to perform allogeneic MLR assay.

In experiment [6] the test system is Human Umbilibal Cord Blood-derived APC. The experiment is described as follows: Pharmacological Test 12: autologous MLR assay with human umbilical cord blood monocyte-derived APCs. It is filed as cell-based. The settings on record: KRN7000 100 ng/mL. The protocol:
A monocyte fraction was prepared from human umbilical cord blood mononuclear cells by Percol density-gradient centrifugation. The monocyte fraction was cultured in the presence of GM-CSF (50 ng/mL) and IL-4 (100 ng/mL), and simultaneously either a vehicle (V; 0.1% DMSO) or KRN7000 (KRN; 100 ng/mL) was added thereto. After culturing for 3 days, the cells were recovered and washed with the medium 3 times to give V-APC-GM and KRN-APC-GM, respectively, which were provided for use as APCs. As response cells, human umbilical cord blood-derived FcR^− cells were used for autologous MLR assay.

Experiment [7] deals with dendritic cell-rich APCs prepared from the murine spleen. The settings on record: Koezuka 1995; Yamaguchi 1996; cited from earlier work.
Where [8] appears, read: KRN7000 100 μg/kg i.v. 3 times versus KRN-APC once.

Molecules are shown by their SMILES.

As to `CCCCCCCCCCCCCCCCCCCCCCCCCC(=O)N[C@@H](CO[C@H]1O[C@H](CO)[C@H](O)[C@H](O)[C@H]1O)[C@H](O)[C@H](O)CCCCCCCCCCCCCC` [KRN7000, (2S,3S,4R)-1-(α-D-galactopyranosyloxy)-2-hexacosanoylamino-3,4-octadecanediol], the “activating effect on APCs (antigen-presenting function enhancing effect)” value in experiment [1] is listed as “has an activating effect on the APCs prepared from human peripheral blood”. In experiment [2] (EL-4 i.v. day 0, KRN7000 100 μg/kg i.v. on days 1, 5 and 9 (positive control)), the survival period result is “remarkable increase in survival period”. The “potency of the survival effect compared with one injection of KRN-APC” value in experiment [2] (setting [8]) is given as “weaker than that when KRN-APC was injected only once”. In experiment [3] (setting [8]), the “tumor growth inhibitory effect compared with one injection of KRN-APC” value is recorded as “at the same level as that when KRN-APC was injected once”. In experiment [3] (KRN7000 100 μg/kg i.v. on days 1, 5 and 9 (positive control)), the “inhibitory effect on tumor growth (liver weight on day 14)” value is on record as “remarkable inhibitory effect on tumor growth”. In addition, the “tumor growth-inhibitory effect (volume of the subcutaneous tumor)” value in experiment [4] was “tumor growth-inhibitory effect”. Also, the “activation of APCs from human peripheral blood” value in experiment [5] is “can activate the APCs from human peripheral blood by various methods”. Further, in experiment [6], the “activation of APCs derived from human umbilical cord blood” value is recorded as “can activate the APCs derived from human umbilical cord blood by various methods”. For the same compound, the “enhancement of the functions of dendritic cell-rich APCs from murine spleen” value in experiment [7] is “can enhance the functions of dendritic cell-rich APCs prepared from the murine spleen”.
